Drawing on ChEMBL document CHEMBL4840306, “Chemodynamic therapy agents Cu(II) complexes of quinoline derivatives induced ER stress and mitochondria-mediated apoptosis in SK-OV-3 cells” (Eur J Med Chem, 2021), this text covers IC50 for one compound.

One experiment relates to T-24. The experiment can be described thus: Cytotoxicity against human T-24 cells assessed as reduction in cell viability measured after 48 hrs by MTT assay. In kind it is functional, cell-based. Conditions: T-24, 48 h.
For a further experiment, the system named is SK-OV-3. Nature of the experiment: Cytotoxicity against human SK-OV-3 cells assessed as reduction in cell viability measured after 48 hrs by MTT assay. The conditions noted are these: SK-OV-3, 48 h. In kind it is functional, cell-based. On the technique in general: Tetrazolium assays rely on reduction of a dye to a coloured formazan, in cell work by metabolically active cells.

In another experiment the test system is MGC-803. Nature of the experiment: Cytotoxicity against human MGC-803 cells assessed as reduction in cell viability measured after 48 hrs by MTT assay. The conditions noted are these: MGC-803, 48 h. In kind it is functional, cell-based.
A further experiment concerns HepG2. Nature of the experiment: Cytotoxicity against human HepG2 cells assessed as reduction in cell viability measured after 48 hrs by MTT assay. In kind it is functional, cell-based. Conditions: HepG2, 48 h.
In a further experiment the test system is WI-38. The experiment can be described thus: Cytotoxicity against human WI-38 cells assessed as reduction in cell viability measured after 48 hrs by MTT assay. In kind it is cell-based. The conditions noted are these: WI-38, 48 h.
The next experiment relates to L02. Nature of the experiment: Cytotoxicity against human HL7702 cells assessed as reduction in cell viability measured after 48 hrs by MTT assay. In kind it is cell-based. The conditions noted are these: L02, 48 h.

What is called IC50 is the concentration that gives 50% inhibition. Take `Oc1cccc(/C=N/c2cc3ccccc3nc2-c2ccccc2F)c1O`: the IC50 in the experiment on T-24 is more than 40 µM; with SK-OV-3, 23.6 µM; in the experiment with MGC-803 it was more than 40 µM; with HepG2, more than 40 µM; in the experiment with WI-38 it was more than 40 µM; in the experiment with L02 it was 34 µM.
